Measurements: ChEMBL document CHEMBL1201862, “PubChem BioAssay data set” (2004)
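These data come from cells grown in 96-well plates and exposed to compound for 48 hours at five concentrations. At the GI50, growth is halved.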 Active and inactive are the calls of the source. No stated cut-off is given here; in the data, active = GI50 up to about 1.1 µM and inactive = higher.

Assays:
Test in all cases: DTP human tumour cell line panel, 48 h
SR = tested on: SR
K562 = tested on: K562
OVCAR-3 = tested on: OVCAR-3
RPMI-8226 = tested on: RPMI-8226
SF-295 = tested on: SF-295
UO-31 = tested on: UO-31
MDA-MB-435 = tested on: MDA-MB-435
OVCAR-5 = tested on: OVCAR-5
SW-620 = tested on: SW-620
NCI-H522 = tested on: NCI-H522
U-251 = tested on: U-251
NCI-H226 = tested on: NCI-H226
PC-3 = tested on: PC-3
SK-MEL-2 = tested on: SK-MEL-2
MOLT-4 = tested on: MOLT-4
IGROV-1 = tested on: IGROV-1
SK-OV-3 = tested on: SK-OV-3
SF-539 = tested on: SF-539
SK-MEL-5 = tested on: SK-MEL-5
HL-60 = tested on: HL-60

CSCCCNC(=O)c1csc(-c2csc(C(CNC(=O)OC(C)(C)C)CNC(=O)OC(C)(C)C)n2)n1
GI50 (SR): 24.4 µM (inactive) | GI50 (K562): 33.6 µM (inactive) | GI50 (OVCAR-3): 60 µM (inactive) | GI50 (RPMI-8226): 14.3 µM (inactive) | GI50 (SF-295): 38.6 µM (inactive) | GI50 (UO-31): 31.8 µM (inactive) | GI50 (MDA-MB-435): 45 µM (inactive) | GI50 (OVCAR-5): 67 µM (inactive) | GI50 (SW-620): 58.3 µM (inactive) | GI50 (NCI-H522): 18.6 µM (inactive) | GI50 (U-251): 25.6 µM (inactive) | GI50 (NCI-H226): 42.5 µM (inactive) | GI50 (PC-3): 28.4 µM (inactive) | GI50 (SK-MEL-2): 27.7 µM (inactive) | GI50 (MOLT-4): 16.8 µM (inactive) | GI50 (IGROV-1): 33.3 µM (inactive) | GI50 (SK-OV-3): 60.3 µM (inactive) | GI50 (SF-539): 45 µM (inactive) | GI50 (SK-MEL-5): 26.1 µM (inactive)

COc1ccc(C2C=C(c3ccc4c(c3)OCO4)Oc3c2c(=O)oc2ccccc32)cc1OC (centres undefined)
GI50 (SR): 0.236 µM (active) | GI50 (K562): 0.299 µM (active) | GI50 (OVCAR-3): 0.475 µM (active) | GI50 (RPMI-8226): 0.254 µM (active) | GI50 (SF-295): 0.279 µM (active) | GI50 (UO-31): 0.527 µM (active) | GI50 (MDA-MB-435): 0.152 µM (active) | GI50 (OVCAR-5): 0.556 µM (active) | GI50 (SW-620): 0.468 µM (active) | GI50 (NCI-H522): 0.303 µM (active) | GI50 (U-251): 0.413 µM (active) | GI50 (NCI-H226): 0.258 µM (active) | GI50 (PC-3): 0.429 µM (active) | GI50 (HL-60): 0.248 µM (active) | GI50 (MOLT-4): 0.968 µM (active) | GI50 (IGROV-1): 0.634 µM (active) | GI50 (SK-OV-3): 0.372 µM (active) | GI50 (SF-539): 0.308 µM (active) | GI50 (SK-MEL-5): 0.324 µM (active)

Oc1ccc(O)c(Cc2ccccc2)c1
GI50 (SR): 2.32 µM (inactive) | GI50 (K562): 10.6 µM (inactive) | GI50 (OVCAR-3): 1.07 µM (active) | GI50 (RPMI-8226): 3.61 µM (inactive) | GI50 (SF-295): 56.1 µM (inactive) | GI50 (UO-31): 15.1 µM (inactive) | GI50 (MDA-MB-435): 19.5 µM (inactive) | GI50 (OVCAR-5): 57.5 µM (inactive) | GI50 (SW-620): 21.3 µM (inactive) | GI50 (U-251): 20.1 µM (inactive) | GI50 (NCI-H226): 19.6 µM (inactive) | GI50 (PC-3): 27.9 µM (inactive) | GI50 (HL-60): 1.52 µM (inactive) | GI50 (SK-MEL-2): 18.7 µM (inactive) | GI50 (MOLT-4): 6.7 µM (inactive) | GI50 (SK-OV-3): 32.8 µM (inactive) | GI50 (SF-539): 10.7 µM (inactive) | GI50 (SK-MEL-5): 17.3 µM (inactive)

COc1ccc(CNc2nc(NCc3ccc(OC)cc3)nc(NC3CCCC3)n2)cc1
GI50 (SR): 2.67 µM (inactive) | GI50 (K562): 2.99 µM (inactive) | GI50 (OVCAR-3): 2.76 µM (inactive) | GI50 (RPMI-8226): 2.24 µM (inactive) | GI50 (SF-295): 2.18 µM (inactive) | GI50 (UO-31): 6.43 µM (inactive) | GI50 (MDA-MB-435): 1.48 µM (inactive) | GI50 (OVCAR-5): 3.63 µM (inactive) | GI50 (SW-620): 4.14 µM (inactive) | GI50 (NCI-H522): 2.99 µM (inactive) | GI50 (U-251): 4.5 µM (inactive) | GI50 (NCI-H226): 5.07 µM (inactive) | GI50 (PC-3): 2.84 µM (inactive) | GI50 (HL-60): 3.34 µM (inactive) | GI50 (MOLT-4): 4.59 µM (inactive) | GI50 (IGROV-1): 13.4 µM (inactive) | GI50 (SK-OV-3): 5.28 µM (inactive) | GI50 (SF-539): 2.75 µM (inactive) | GI50 (SK-MEL-5): 3.76 µM (inactive)

COC(=O)[C@@H]1CN(C(=O)Cc2ccccc2)C(=O)N1
GI50 (SR): > 100 µM (inactive) | GI50 (K562): > 100 µM (inactive) | GI50 (OVCAR-3): > 100 µM (inactive) | GI50 (RPMI-8226): > 100 µM (inactive) | GI50 (SF-295): > 100 µM (inactive) | GI50 (UO-31): > 100 µM (inactive) | GI50 (MDA-MB-435): > 100 µM (inactive) | GI50 (OVCAR-5): > 100 µM (inactive) | GI50 (SW-620): > 100 µM (inactive) | GI50 (NCI-H522): > 100 µM (inactive) | GI50 (U-251): > 100 µM (inactive) | GI50 (NCI-H226): > 100 µM (inactive) | GI50 (PC-3): > 100 µM (inactive) | GI50 (HL-60): > 100 µM (inactive) | GI50 (MOLT-4): > 100 µM (inactive) | GI50 (IGROV-1): > 100 µM (inactive) | GI50 (SF-539): > 100 µM (inactive) | GI50 (SK-MEL-5): > 100 µM (inactive)

NC(=O)/C=c1/c2ccccc2n2nc3ccccc3c12
GI50 (SR): 2.68 µM (inactive) | GI50 (K562): 15.3 µM (inactive) | GI50 (OVCAR-3): 15.7 µM (inactive) | GI50 (RPMI-8226): 4.98 µM (inactive) | GI50 (SF-295): 31.1 µM (inactive) | GI50 (UO-31): 19.2 µM (inactive) | GI50 (MDA-MB-435): 16 µM (inactive) | GI50 (OVCAR-5): 29.9 µM (inactive) | GI50 (SW-620): 17.5 µM (inactive) | GI50 (NCI-H522): 14.1 µM (inactive) | GI50 (U-251): 12.9 µM (inactive) | GI50 (PC-3): 11 µM (inactive) | GI50 (HL-60): 3.91 µM (inactive) | GI50 (SK-MEL-2): 15.6 µM (inactive) | GI50 (MOLT-4): 2.69 µM (inactive) | GI50 (IGROV-1): 10.6 µM (inactive) | GI50 (SK-OV-3): 16.3 µM (inactive) | GI50 (SF-539): 13.3 µM (inactive) | GI50 (SK-MEL-5): 35.6 µM (inactive)

O=C(/C=C1/Nc2ccc([N+](=O)[O-])cc2N/C1=C/C(=O)c1ccc(Cl)cc1)c1ccccc1
GI50 (SR): > 100 µM (inactive) | GI50 (K562): 55.8 µM (inactive) | GI50 (OVCAR-3): > 100 µM (inactive) | GI50 (SF-295): 23.4 µM (inactive) | GI50 (UO-31): > 100 µM (inactive) | GI50 (MDA-MB-435): > 100 µM (inactive) | GI50 (OVCAR-5): > 100 µM (inactive) | GI50 (NCI-H522): 12.6 µM (inactive) | GI50 (U-251): 30.8 µM (inactive) | GI50 (NCI-H226): > 100 µM (inactive) | GI50 (PC-3): > 100 µM (inactive) | GI50 (SK-MEL-2): 19.9 µM (inactive) | GI50 (MOLT-4): > 100 µM (inactive) | GI50 (IGROV-1): > 100 µM (inactive) | GI50 (SK-OV-3): 58.7 µM (inactive) | GI50 (SF-539): 30.3 µM (inactive) | GI50 (SK-MEL-5): > 100 µM (inactive)
